Data reported in patent US11225481B2 (Centre national de la recherche scientifique, priority 2015, dated 2022).
Where two headings read alike, the source gives them in different places.

How the values were obtained:
Type in all cases: binding
BRD4(BD1) [1] = target: T1, BRD4(BD1) (Homo sapiens, UniProt O60885); assay: Isothermal Titration Calorimetry
T1 construct: a BRD4(BD1) synthetic gene that includes a TEV cleavage site was purchased from LifeTechnology; made in house
Source text: (§1) For Isothermal Titration Calorimetry (ITC) and crystallogenesis, BRD4(BD1) was produced and purified using a histidine tag affinity chromatography as described by Filipakopoulos et al.9 For these experiments, a pNIC28-BSA4 expression vector containing BRD4(BD1) and a Tobacco Etch Virus (TEV) protease cleavage site have kindly been provided by Stefan Knapp laboratory from the SGC at the University of Oxford. After size exclusion chromatography, the fractions presenting pure BRD4(BD1) after TEV cleavage of the histidine tag were pooled and concentrated to 25 mg/mL for crystallogenesis. For ITC assays, the protein was concentrated up to at 6 mg/mL and the DTT was removed using a buffer exchange column (PD10 from GE healthcare) equilibrated with 10 mM HEPES pH=7.5, 150 mM NaCl. For Homogeneous Time Resolved Fluorimetry (HTRF) experiments, a BRD4(BD1) synthetic gene that includes a TEV cleavage site was purchased from LifeTechnology in a pDONR transport vector before cloning into a pDESTTM15 expression vector for GST affinity purification. Protein production and purification was carried out using similar protocols and buffers as used for the His-BRD4(BD1) system. Purification was carried on GST affinity resin (Thermo Scientific) and reduced glutathione was used for protein release. GST-BRD4(BD1) was further purified by size exclusion chromatography on a Superdex 16/60 Hiload column (GE Healthcare) using 20 mM TRIS pH=8.0, 150 mM NaCl Buffer.
ITC was used to evaluate the thermodynamics parameters of the binding between BRD4(BD1) and the selected compounds, using ITC conditions previously described by Filippakopoulos et al.8 Purified BRD4(BD1) was extensively dialyzed in the ITC buffer containing 10 mM Hepes pH=7.5 and 150 mM NaCl. Compounds were diluted directly in the last protein dialysate prior to experiments. Titrations were carried out on a MicroCal ITC200 microcalorimeter (GE Healthcare, Piscataway, N.J.). Each experiment was designed using a titrant concentration (protein in the syringe) set 10 to 15 times the analyte concentration (compound in the cell generally between 10 and 35 μM) and using 13 injections at 35° C. A first small injection (generally 0.2 μL) was included in the titration protocol in order to remove air bubbles trapped in the syringe prior titration. Raw data were scaled after setting the zero to the titration saturation heat value. Integrated raw ITC data were fitted to a one site non-linear least squares fit model using the MicroCal Origin plugin as implemented in Origin 7 (Origin Lab). Finally, ΔG and TΔS values were calculated from the fitted ΔH and KA values using the equations ΔG=−R.T. ln KA and ΔG=ΔH−TΔS.

BRD4(BD1) [2] = target: T1, BRD4(BD1); assay: HTRF assay, disruption of bromodomain/histone peptide interaction
Method: HTRF assays were performed in white 384 Well Small Volume™ HiBase Polystyrene Microplates (Greiner) with a total working volume of 20 μL. Compounds were dispensed, with 200 nL per well (1% final DMSO), from a concentration stock of 1 mM in 100% DMSO and with serial DMSO dilutions, using a Mosquito Crystal pipetting robot platform (TTP labtech). The IC50 measurements were performed in triplicates (Table 2 and 3). All HTRF reagents were purchased from CisBio Bioassays and reconstituted according to the supplier protocols. For each assay 14.7 μL of mix 1 (protein+peptide) is added in the assay wells, containing previously dispensed inhibitors, according to the final concentration and buffer described in Table 4, using a Biomek NX MC pipetting robot (Beckman). Then, 5.1 μL of mix 2 (donnor+acceptor) is added. HTRF signals were measured, after a final incubation (overnight at room temperature), using a PHERAstar FS (BMG Labtech) with an excitation filter at 337 nm and fluorescence wavelength measurement at 620 and 665 nm, an integration delay of 60 μs and an integration time of 500 μs. Results were analyzed with a two-wavelengths signal ratio: [intensity (665 nm)/intensity (620 nm)]*10^4. Percentage of inhibition was calculated using the following equation: % inhibition=[(compound signal)−(min signal)]/[(max signal)−(min signal)]*100, where ‘max signal’ is the signal ratio with the compound vehicle alone (DMSO) and ‘min signal’ the signal ratio without peptide.
as §1

BET bromodomains = assay: Selectivity profile across BET bromodomains (HTRF)
Method: Selectivity profiles of bromodomain inhibitors were performed as described in HTRF screen section. […] HTRF detection reagents (EPIgeneous™ Binding Domain kits) were purchased from Cisbio Bioassays and used according to supplier's protocol. GST tagged bromodomain proteins were purchased from BPS Bioscience and histone peptide from Anaspec.

SMILES: CCCCc1c(C)nc2nc(SCc3nc4c(c(=O)[nH]c(=O)n4CCCC)n3CC)nn2c1C [Compound 26b, 3-Butyl-8-(6-butyl-5,7-dimethyl-[1,2,4]triazolo[1,5-a]pyrimidin-2-ylsulfanylmethyl)-7-ethyl-3,7-dihydro-purine-2,6-dione]
- entropy term −TΔS (BRD4(BD1) [1]; ITC, BRD4(BD1)): -29.7 kJ/mol
- Kd (BRD4(BD1) [1]; Isothermal Titration Calorimetry): 1.4 µM
- IC50 (BRD4(BD1) [2]; HTRF, Table 1′, TABLE 2, read-out: BRD4(BD1) IC50): 5 µM
- IC50 (BRD4(BD1) [2]; HTRF, mean ± SD of three experiments, Table 2, read-out: IC50 μM, effect on BRD4(BD1) activity): 5 µM
- LE (Ligand Efficiency) (BRD4(BD1) [2]; LE = 1.4(−log(IC50)/N), BRD4(BD1)): 0.22
- IC50 (BRD4(BD1) [2]; Table 3 selectivity profile, mean ± SD of three experiments, read-out: IC50 (μM) BRD4(BD1)): 5 ± 0.1 µM
- fold lower IC50 towards BRD4(BD1) as compared to its relatives BD1 (BET bromodomains; HTRF): 10 fold
- selectivity profile among BET bromodomains (BET bromodomains; in words): selective towards BRD4(BD1)
